Source: patent US20260176265A1 (Cancer Research Technology Limited, priority 2022, published 2026)

Tests used:
[1] = target: T1, Phospho-EGFR (Tyr1068) in A431 cells (Homo sapiens, UniProt P00533); assay: HTRF pEGFR/total EGFR assay in A431 cells (EGF stimulated); assay type: cell-based; details: compound 2.5 hours then 100 ng/ml EGF 30 mins, ratio pEGFR/total EGFR
T1 construct: endogenous in cells; host or cells: A431
In short: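 A431 cells pretreated with compounds 2.5 h (0.1% DMSO), then stimulated with 100 ng/ml EGF for 30 min. Lysates assayed by HTRF for phospho-EGFR (Tyr1068) and total EGFR, read at 665/620 nm. Values are pEGFR/total EGFR ratio as percentage of 0uM control.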

[2] = target: CtermHisTag-mEGFR Wild type (Homo sapiens, UniProt P00533); assay: TR-FRET probe displacement assay, EGFR wild type; assay type: binding; details: EGFR wild type 1.25 nM, probe 100 nM, 30 mins room temperature
In short: (§1)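 Ten-point compound series, 100000 to 3 nM final, tested against His-tagged EGFR (wild type or C797S/L858R/T790M) for probe displacement. TR-FRET read at Ex337 nm, Em490/520 nm; run in technical replicate, biological duplicate.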

[3] = target: CtermHisTag-mEGFR Triple Mutant - C797S, L858R, T790M (Homo sapiens, UniProt P00533, C797S/L858R/T790M); assay: TR-FRET probe displacement assay, EGFR triple mutant; assay type: binding; details: T790M 1.25 nM, probe 100 nM, 30 mins room temperature
In short: as §1

[4] = target: T2, Phospho-EGFR (Tyr1068) in H1975 cells (Homo sapiens, UniProt P00533, L858R/T790M); assay: HTRF pEGFR/total EGFR assay in H1975 cells; assay type: cell-based; details: compound 3 hours, ratio pEGFR/total EGFR
T2 construct: host or cells: H1975
In short: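 H1975 cells (EGFR L858R/T790M) adhered 24 h, then compound-treated for 3 h in duplicate, 0.1% DMSO final. Lysates read by HTRF at 665/620 nm for phospho-Tyr1068 and total EGFR. Value is pEGFR/total EGFR ratio as % of 0 uM control.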

[5] = target: T3, Phospho-EGFR (Tyr1068) in H1975 C797S cells (Homo sapiens, UniProt P00533, C797S/L858R/T790M); assay: HTRF pEGFR/total EGFR assay in H1975 C797S cells; assay type: cell-based; details: H1975 C797S cells (CRISPR), compound 3 hours, ratio pEGFR/total EGFR
T3 construct: endogenous in cells; host or cells: H1975 C797S (CRISPR-edited in house from ATCC CRL-5908)
In short: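 H1975 cells carrying CRISPR-engineered EGFR C797S (with L858R/T790M) were exposed to compounds for 3 h at 0.1% DMSO, in duplicate. Lysates were read with HTRF kits for pEGFR Tyr1068 and total EGFR at 665/620 nm. Values are the pEGFR/total EGFR ratio as percent of the 0 uM control.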

T2 sequence (P00533 25-1210 T790M/L858R): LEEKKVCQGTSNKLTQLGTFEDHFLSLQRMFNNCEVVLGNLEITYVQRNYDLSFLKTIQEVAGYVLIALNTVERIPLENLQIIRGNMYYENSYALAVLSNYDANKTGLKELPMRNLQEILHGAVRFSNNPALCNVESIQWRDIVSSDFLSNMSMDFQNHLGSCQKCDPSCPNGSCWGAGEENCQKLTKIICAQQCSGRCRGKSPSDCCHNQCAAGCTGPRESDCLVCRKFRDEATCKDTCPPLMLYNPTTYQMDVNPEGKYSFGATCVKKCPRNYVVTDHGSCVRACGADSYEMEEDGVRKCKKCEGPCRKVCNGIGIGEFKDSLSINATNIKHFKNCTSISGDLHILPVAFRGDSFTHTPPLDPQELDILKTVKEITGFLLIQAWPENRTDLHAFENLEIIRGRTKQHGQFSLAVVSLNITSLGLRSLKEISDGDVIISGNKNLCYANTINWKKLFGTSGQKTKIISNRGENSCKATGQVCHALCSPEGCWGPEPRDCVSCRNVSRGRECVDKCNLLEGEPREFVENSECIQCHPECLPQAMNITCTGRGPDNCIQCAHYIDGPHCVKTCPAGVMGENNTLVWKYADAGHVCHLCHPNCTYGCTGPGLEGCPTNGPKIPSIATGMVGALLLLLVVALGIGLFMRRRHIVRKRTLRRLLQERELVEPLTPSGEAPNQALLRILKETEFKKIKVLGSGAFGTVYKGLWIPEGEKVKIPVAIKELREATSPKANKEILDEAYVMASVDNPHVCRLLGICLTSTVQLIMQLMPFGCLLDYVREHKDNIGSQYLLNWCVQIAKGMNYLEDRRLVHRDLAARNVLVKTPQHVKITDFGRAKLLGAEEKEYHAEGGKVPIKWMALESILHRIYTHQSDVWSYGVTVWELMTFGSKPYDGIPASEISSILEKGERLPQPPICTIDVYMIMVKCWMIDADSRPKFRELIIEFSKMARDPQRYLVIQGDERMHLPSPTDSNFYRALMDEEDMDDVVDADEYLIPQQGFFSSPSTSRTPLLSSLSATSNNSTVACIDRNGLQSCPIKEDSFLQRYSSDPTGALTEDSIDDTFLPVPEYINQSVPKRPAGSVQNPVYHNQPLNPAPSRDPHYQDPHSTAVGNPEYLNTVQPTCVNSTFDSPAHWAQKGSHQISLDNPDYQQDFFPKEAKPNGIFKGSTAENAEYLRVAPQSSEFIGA
T3 sequence (P00533 25-1210 T790M/C797S/L858R): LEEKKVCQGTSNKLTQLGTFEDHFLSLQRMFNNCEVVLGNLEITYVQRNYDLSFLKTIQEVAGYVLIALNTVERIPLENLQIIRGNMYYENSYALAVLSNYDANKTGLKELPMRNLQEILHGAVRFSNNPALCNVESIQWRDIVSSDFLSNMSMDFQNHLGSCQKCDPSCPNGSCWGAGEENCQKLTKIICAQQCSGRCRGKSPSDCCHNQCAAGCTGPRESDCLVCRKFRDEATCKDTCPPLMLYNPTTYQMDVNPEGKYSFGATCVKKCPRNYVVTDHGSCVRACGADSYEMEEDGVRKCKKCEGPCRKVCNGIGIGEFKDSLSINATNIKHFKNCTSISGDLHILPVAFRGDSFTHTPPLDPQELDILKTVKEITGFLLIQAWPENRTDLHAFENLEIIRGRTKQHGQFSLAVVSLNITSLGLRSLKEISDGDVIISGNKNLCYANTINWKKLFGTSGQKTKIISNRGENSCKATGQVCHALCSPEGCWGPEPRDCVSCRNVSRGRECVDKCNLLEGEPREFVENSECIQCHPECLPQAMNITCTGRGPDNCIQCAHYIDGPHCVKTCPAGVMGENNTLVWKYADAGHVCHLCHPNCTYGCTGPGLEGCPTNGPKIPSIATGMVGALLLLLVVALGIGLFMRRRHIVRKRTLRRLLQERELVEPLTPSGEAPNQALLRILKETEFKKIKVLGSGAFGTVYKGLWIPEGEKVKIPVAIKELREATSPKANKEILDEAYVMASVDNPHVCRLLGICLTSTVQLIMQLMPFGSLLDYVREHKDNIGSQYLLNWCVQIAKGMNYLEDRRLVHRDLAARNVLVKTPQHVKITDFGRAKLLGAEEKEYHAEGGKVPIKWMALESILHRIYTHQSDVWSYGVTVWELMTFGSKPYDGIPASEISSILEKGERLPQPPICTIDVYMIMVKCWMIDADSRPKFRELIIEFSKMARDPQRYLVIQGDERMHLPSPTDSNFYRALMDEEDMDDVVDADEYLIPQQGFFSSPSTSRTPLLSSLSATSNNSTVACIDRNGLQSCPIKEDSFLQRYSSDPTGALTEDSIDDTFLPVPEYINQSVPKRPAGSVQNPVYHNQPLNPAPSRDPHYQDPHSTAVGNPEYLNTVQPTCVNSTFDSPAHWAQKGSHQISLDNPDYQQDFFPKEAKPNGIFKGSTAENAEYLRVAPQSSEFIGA
Sequence of CtermHisTag-mEGFR Triple Mutant - C797S, L858R, T790M (P00533 25-1210 T790M/C797S/L858R): as above
T1 sequence (P00533 25-1210): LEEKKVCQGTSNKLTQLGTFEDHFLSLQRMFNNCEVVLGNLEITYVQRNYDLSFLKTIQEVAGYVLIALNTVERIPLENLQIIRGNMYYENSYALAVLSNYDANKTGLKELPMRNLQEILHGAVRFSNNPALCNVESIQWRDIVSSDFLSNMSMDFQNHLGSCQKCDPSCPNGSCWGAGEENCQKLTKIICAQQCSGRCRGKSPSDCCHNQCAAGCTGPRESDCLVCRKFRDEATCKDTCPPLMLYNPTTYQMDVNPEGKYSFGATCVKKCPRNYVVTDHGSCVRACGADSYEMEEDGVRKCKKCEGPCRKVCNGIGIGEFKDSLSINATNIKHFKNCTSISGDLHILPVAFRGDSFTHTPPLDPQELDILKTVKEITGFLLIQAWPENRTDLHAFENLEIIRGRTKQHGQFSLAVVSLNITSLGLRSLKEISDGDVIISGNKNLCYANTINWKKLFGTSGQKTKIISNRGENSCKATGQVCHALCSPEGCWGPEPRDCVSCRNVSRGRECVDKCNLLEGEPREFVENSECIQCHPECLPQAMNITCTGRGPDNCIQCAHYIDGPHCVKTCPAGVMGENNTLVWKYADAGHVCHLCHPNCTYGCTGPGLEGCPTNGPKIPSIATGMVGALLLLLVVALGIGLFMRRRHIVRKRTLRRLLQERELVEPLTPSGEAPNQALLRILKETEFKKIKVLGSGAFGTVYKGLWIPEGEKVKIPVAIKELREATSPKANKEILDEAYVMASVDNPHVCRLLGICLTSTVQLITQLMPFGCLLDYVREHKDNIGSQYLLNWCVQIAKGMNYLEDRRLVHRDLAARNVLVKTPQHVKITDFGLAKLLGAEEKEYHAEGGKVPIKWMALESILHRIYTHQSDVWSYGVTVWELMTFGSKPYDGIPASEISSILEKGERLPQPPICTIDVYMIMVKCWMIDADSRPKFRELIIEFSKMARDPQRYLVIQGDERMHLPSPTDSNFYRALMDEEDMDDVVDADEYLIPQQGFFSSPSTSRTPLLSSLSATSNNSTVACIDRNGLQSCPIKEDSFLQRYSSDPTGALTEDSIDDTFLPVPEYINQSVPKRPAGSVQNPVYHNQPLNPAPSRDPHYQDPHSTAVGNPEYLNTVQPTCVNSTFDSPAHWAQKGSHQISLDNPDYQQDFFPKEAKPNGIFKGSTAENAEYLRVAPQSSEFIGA

Row | IC50 [1] [nM] | IC50 [2] [nM] | IC50 [3] [nM] | IC50 [4] [nM] | IC50 [5] [nM] | SMILES
1 | 500 to 1000 | < 1000 | < 20 | < 500 | < 500 | C#Cc1cc(NC(=O)NC2(C)CCOC2)nc2nc(Nc3ccc(N4CCN(C)CC4)cc3)ncc12 (stereo not shown) [Example 62]
2 | < 500 | < 1000 | 20 to 100 | < 500 | 1000 to 3000 | C#Cc1cc(NC(=O)NC2CCCC2)nc2nc(Nc3ccc(N4CCN(C)CC4)c(NCC4CCC4)c3)ncc12 [Example 63]
3 | < 500 | 1000 to 10000 | < 20 | < 500 | 1000 to 3000 | C#Cc1cc(N2C(=O)NCC2C(C)C)nc2nc(Nc3ccc(N4CCN(C)CC4)cc3)ncc12 (stereo not shown) [Example 64, 1-(5-ethynyl-2-{[4-(4-methylpiperazin-1-yl)phenyl]amino}pyrido[2,3-d]pyrimidin-7-yl)-5-isopropylmidazolidin-2-one]
4 | > 3000 | > 10000 | 100 to 1000 | 1000 to 3000 | > 3000 | C#Cc1cc(NC(=O)OC2CCCC2)nc2nc(Nc3ccc(N4CCN(C)CC4)cc3)ncc12 [Example 65, cyclopentyl (5-ethynyl-2-((4-(4-methylpiperazin-1-yl)phenyl)amino)pyrido[2,3-d]pyrimidin-7-yl)carbamate]
5 | > 3000 | > 10000 | 100 to 1000 | > 3000 | > 3000 | C#Cc1cc(NC(=O)OC2CCCCC2)nc2nc(Nc3ccc(N4CCN(C)CC4)cc3)ncc12 [Example 66, cyclohexyl (5-ethynyl-2-((4-(4-methylpiperazin-1-yl)phenyl)amino)pyrido[2,3-d]pyrimidin-7-yl)carbamate]
6 | > 3000 | > 10000 | 1000 to 50000 | > 3000 | > 3000 | C#Cc1cc(NC(=O)OCc2ccccc2)nc2nc(Nc3ccc(N4CCN(C)CC4)cc3)ncc12 [Example 67, benzyl (5-ethynyl-2-((4-(4-methylpiperazin-1-yl)phenyl)amino)pyrido[2,3-d]pyrimidin-7-yl)carbamate]
7 | > 3000 | 1000 to 10000 | < 20 | < 500 | 1000 to 3000 | C#Cc1cc(N2C(=O)OCC2C(C)C)nc2nc(Nc3ccc(N4CCN(C)CC4)cc3)ncc12 (stereo not shown) [Example 68, 3-(5-ethynyl-2-{[4-(4-methylpiperazin-1-yl)phenyl]amino}pyrido[2,3-d]pyrimidin-7-yl)-4-isopropyl-1.3-oxazolidin-2-one]
8 | > 3000 | > 10000 | < 20 | 500 to 1000 | 500 to 1000 | C#Cc1cc(N2C(=O)OC[C@H]2C(C)C)nc2nc(Nc3ccc(N4CCN(C)CC4)cc3)ncc12 [Example 69, (4R)-3-(5-ethynyl-2-{[4-(4-methylpiperazin-1-yl)phenyl]amino}pyrido[2,3-d]pyrimidin-7-yl)-4-isopropyl-1,3-oxazolidin-2-one]
9 | 500 to 1000 | < 1000 | < 20 | 500 to 1000 | > 3000 | C#Cc1cc(N2C(=O)OC[C@@H]2C(C)C)nc2nc(Nc3ccc(N4CCN(C)CC4)cc3)ncc12 [Example 70, (4S)-3-(5-ethynyl-2-{[4-(4-methylpiperazin-1-yl)phenyl]amino}pyrido[2,3-d]pyrimidin-7-yl)-4-isopropyl-1,3-oxazolidin-2-one]
10 | 1000 to 3000 | < 1000 | < 20 | 1000 to 3000 | > 3000 | C#Cc1cc(N2CCOC2=O)nc2nc(Nc3ccc(N4CCN(C)CC4)cc3)ncc12 [Example 71, 3-(5-ethynyl-2-{[4-(4-methylpiperazin-1-yl)phenyl]amino}pyrido[2,3-d]pyrimidin-7-yl)-1,3-oxazolidin-2-one]
11 | > 3000 | < 1000 | < 20 | 500 to 1000 | 1000 to 3000 | C#Cc1c(C)c(NC(=O)NC2CCCC2)nc2nc(Nc3ccc(N4CCN(C)CC4)cc3)ncc12 [Example 72, 3-Cyclopentyl-1-(5-ethynyl-6-methyl-2-{[4-(4-methylpiperazin-1-yl)phenyl]amino}pyrido[2,3-d]pyrimidin-7-yl)urea]
12 | > 3000 | < 1000 | < 20 | < 500 | < 500 | C#Cc1cc(N(C)C(=O)NC2CCCC2)nc2nc(Nc3ccc(N4CCN(C)CC4)cc3)ncc12 [Example 73, 3-Cyclopentyl-1-(5-ethynyl-2-{[4-(4-methylpiperazin-1-yl)phenyl]amino}pyrido[2,3-d]pyrimidin-7-yl)-1-methylurea]
13 | > 3000 | 1000 to 10000 | 100 to 1000 | > 3000 | > 3000 | C#Cc1cc(NC(=O)N(C)C2CCCC2)nc2nc(Nc3ccc(N4CCN(C)CC4)cc3)ncc12 [Example 74, 3-Cyclopentyl-1-(5-ethynyl-2-{[4-(4-methylpiperazin-1-yl)phenyl]amino}pyrido[2,3-d]pyrimidin-7-yl)-3-methylurea]
14 | < 500 | < 1000 | < 20 | < 500 | < 500 | C#Cc1cc(NC(=O)NC2CCCC2)nc2nc(Nc3ccc(N4CCOCC4)cc3)ncc12 [Example 75]
15 | < 500 | < 1000 | < 20 | < 500 | < 500 | C#Cc1cc(NC(=O)NC2CCCC2)nc2nc(Nc3ccc(N4CCN(C5COC5)CC4)cc3)ncc12 [Example 76, 3-Cyclopentyl-1-[5-ethynyl-2-({4-[4-(oxetan-3-yl)piperazin-1-yl]phenyl}amino)pyrido[2,3-d]pyrimidin-7-yl]urea]
16 | > 3000 | < 1000 | < 20 | 500 to 1000 | > 3000 | C#Cc1cc(NC(=O)NC2CCCC2)nc2nc(Nc3ccc(N(C)C(C)=O)cc3)ncc12 [Example 77, N-[4-((7-[(Cyclopentylcarbamoyl)amino]-5-ethynyl)pyrido[2,3-d]pyrimidin-2-ylamino)phenyl]-N-methylacetamide]
17 | > 3000 | 1000 to 10000 | 100 to 1000 | > 3000 | > 3000 | C#Cc1cc(NC(=O)NC2CCCC2)nc2nc(Nc3ccc(N(C)C(=O)CN4CCC4)cc3)ncc12 [Example 78, 2-(Azetidin-1-yl)-N-[4-((7-[(cyclopentylcarbamoyl)amino]-5-ethynyl)pyrido[2,3-d]pyrimidin-2-ylamino)phenyl]-N-methylacetamide]
18 | > 3000 | < 1000 | < 20 | < 500 | < 500 | C#Cc1cc(NC(=O)NC2CCCC2)nc2nc(Nc3ccc(OCCN(C)C)cc3)ncc12 [Example 79, 3-Cyclopentyl-1-[2-((4-[2-(dimethylamino)ethoxyl]phenylamino)-5-ethynyl)pyrido[2,3-d]pyrimidin-7-yl]urea]
19 | 1000 to 3000 | < 1000 | < 20 | > 3000 | < 500 | C#Cc1cc(NC(=O)NC2CCCC2)nc2nc(Nc3ccc(OC4CN(C)C4)cc3)ncc12 [Example 80]
20 | 500 to 1000 | < 1000 | < 20 | 500 to 1000 | 1000 to 3000 | C#Cc1cc(NC(=O)NC2CCCC2)nc2nc(Nc3ccc(S(C)(=O)=O)cc3)ncc12 [Example 81, 3-Cyclopentyl-1-{5-ethynyl-2-[(4-methanesulfonylphenyl)amino]pyrido[2,3-d]pyrimidin-7-yl}urea]
